Experimental data: US5965720A, “Oligonucleotide N3'→P5' phosphoramidates” (Lynx Therapeutics, Inc., priority 1997, dated 1999)
Entries after “also recorded” stand apart in the source; their conditions may differ. [np] = N3'→P5' phosphoramidate

What was measured:
BV173 cells = test: Leukemic cell proliferation, BV173 cells (B2A2 BCR/ABL fusion junction); details: for shape of inhibition curves at later time points after partial release of inhibition: FIGS. 14 and 18; for inhibition of BV173 leukemia cell growth relative to phosphoramidate oligonucleotide 6: comparable concentrations
K562 cells = test: Leukemic cell proliferation / cytotoxicity, K562 cells (B3A2 BCR/ABL fusion junction); format: cell-based; details: FIG. 15
Method: (§1) N3'→P5' phosphoramidate linkage containing anti-sense oligonucleotides were synthesized which were complementary to the BCR/ABL fusion junction (B2A2) in leukemic cell line BV173. The following assay measures leukemic cell proliferation and is performed essentially as described by Anfossi, et al. (1989).
(§2) Briefly, FIG. 10 illustrates the effect of BCR-ABL oligomers on leukemic cell proliferation of BV173 cells carrying the B2A2-type break points. BV173 is a leukemic cell line with the B2A2 BCR/ABL fusion junction (Pegoraro, et al., 1983). HL60 is a promyelocytic leukemic cell line with a normal c-abl locus (Collins, et al., 1977). K562 is a leukemic cell line with the B3A2 BCR/ABL fusion junction (Seelig, et al., 1993).
(§3) Cells (5×10^4) were placed in 0.2 ml of liquid suspension culture (Iscove's modified Dulbecco's modified medium with 2% human AB serum--Life Technologies, Gaithersburg, Md.).
(§4) The oligonucleotides were administered to the cultures at 24 hour intervals for three days (days 0, 1 and 2) to achieve the incremental concentrations shown in the legends of FIGS. 10-19 (all concentrations in μg/mL), for example, FIG. 10--40/20/20; 20/10/10; 10/5/5; and 5/2.5/2.5. Note that, for example, 40/20/20 reflects a final total concentration of 80 μg/ml in the cell culture medium after the last oligonucleotide addition. Cell counts were performed by standard methods.

[1] = test system: dA10:dT10 duplex region of the hairpin DNA target d(A10 C4 T10); test: Triplex melting with hairpin DNA target d(A10 C4 T10); format: binding
Method: Melting curves were obtained for triplexes formed by the decathymidilic phosphoramidate […] and the dA10 :dT10 duplex region of the hairpin DNA target d(A10 C4 T10) (FIG. 3, experiment 7).
(§5) Triplex thermal stabilities were evaluated essentially as described above for duplexes.
FIGS. 7A to 7D present exemplary triplex melting curves. FIGS. 7A and 7C present normalized absorbance at 260 nm plotted against temperature. FIGS. 7B and 7D present normalized absorbance at 284 nm plotted against temperature. In the figures: the triplexes formed by double stranded DNA and phosphoramidate Oligonucleotide 3 correspond to the black circle line; triplexes formed with phosphodiester Oligonucleotide 1 correspond to open squares line).
The data correspond to FIG. 3, experiment 7 where curves (A) and (C) were thermal stability studies performed using buffers A and B, respectively, with hyperchromicity monitored at 260 nm. Curves (B) and (D) are (A) and (C) respectively, but where hyperchromicity was monitored at 284 nm.

complementary DNA strand = test: Thermal dissociation of duplexes with complementary DNA strand; format: binding
Method: (§6) The hybridization properties of the phosphoramidate analogs were evaluated relative to complementary DNA or RNA strands having standard phosphodiester intersubunit linkages. The thermal stability data for duplexes generated from phosphoramidate analogs and phosphodiester oligomers are summarized in FIG. 3 (Example 1).
(§7) The same trend is true for the mixed-base undecanucleotide 6 (FIG. 3), where the Tm 's of duplexes with complementary DNA and RNA strands were 49.2° C. and 72.4° C., respectively, (FIG. 3, experiments 13, 14).
Thermal dissociation curves were obtained using a Carry IE spectrophotometer (Varian, Palo Alto, Calif.) that was equipped with a temperature controller (Varian). […]
(§8) The molar extinction coefficients used for oligo(dT), poly(dA) and poly(A) were 8.2, 8.4, and 10.2 A260 ×10^3, respectively. An extinction coefficient of 109 A260 Units/μM was used for the mixed-based oligomers--the extinction coefficient was calculated from the table compiled by P. N. Borer (1975).
Reaction solutions were equilibrated at 0° C. and the absorbance at 260 nm was followed as the temperature was increased in increments of 3° C. per 5 minutes. The fraction of an oligomer in the bound state, α,at a given temperature was determined by use of upper and lower base lines as described by Abergo, et al. (1981). […]

[2] = test system: 26-mer hairpin target (SEQ ID NO:22); test: Gel band mobility shift assay, 26-mer hairpin target; format: binding; details: native conditions, essentially as for Oligonucleotide 3
From the text: The conditions of the gel band mobility shift assay were essentially as described above.

[3] = test system: single mismatch RNA target; test: Thermal dissociation of duplexes with single mismatch RNA target; format: binding; details: mismatch discrimination
Method: Hybridization of the phosphoramidate oligonucleotides with complementary nucleic acids is sequence specific and determined by the proper Watson-Crick base pairing.
Reaction solutions were equilibrated at 0° C. and the absorbance at 260 nm was followed as the temperature was increased in increments of 3° C. per 5 minutes. […] Tm values are defined as the temperature at which α=0.5.

complementary RNA strand = test: Thermal dissociation of duplexes with complementary RNA strand; format: binding
Method: as §6, §7
Thermal dissociation curves were obtained using a Carry IE spectrophotometer (Varian, Palo Alto, Calif.) that was equipped with a temperature controller (Varian). The reaction solutions contained equivalent concentrations of oligomer and complement (approximately 6 μM in oligomer strand) in 15 mM phosphate buffer at pH 7.05, with NaCl added to give a total Na+ concentration of 100 mM.
as §8
Reaction solutions were equilibrated at 0° C. and the absorbance at 260 nm was followed as the temperature was increased in increments of 3° C. per 5 minutes. The fraction of an oligomer in the bound state, α,at a given temperature was determined by use of upper and lower base lines as described by Abergo, et al. (1981). Tm values are defined as the temperature at which α=0.5. Plots of Ink (Marky, et al., 1987) versus 1/T were linear for these compounds.
In the table, Tm is the temperature at the midpoint of the melting curve; np is the abbreviation for the 3'--NHP(O)(O^-)0-5' phosphoramidate link.
The concentrations of oligonucleotides were typically at 5 μM oligomer strands. Buffer A (10 mM Tris HCl, 150 mM NaCl, pH 7.02) was used for duplex thermal stability studies.

HL60 cells = test: Leukemic cell proliferation / cytotoxicity, HL60 cells (no BCR/ABL breakpoint); format: cell-based
Method: as §1, §2, §3, §4

[4] = Thermal dissociation of oligonucleotide hairpin duplexes; format: physicochemical
Method: Experiments were also performed to evaluate the stability of duplexes formed by oligonucleotides containing phosphoramidate linkages in both complementary strands.
The stability of duplexes formed by oligonucleotides containing phosphoramidate linkages in both complementary strands was evaluated essentially as described above.
All the molecules in FIG. 6 were constructed using 2'-deoxyribonucleotides.
as §5

control cell lines = test: Cytotoxicity of antisense oligonucleotides in leukemia cell culture; format: cell-based
From the text: FIGS. 10 through 19 show the results of anti-sense oligonucleotides, having either phosphoramidate (N3'→P5') (FIGS. 10-15) or phosphorothioate (FIGS. 16-19) intersubunit linkages, on leukemia cell proliferation for different BCR-ABL leukemia cell lines and control cell lines.
as §1, §3, §4

[5] = test system: 24-mer hairpin target d(A10 C4 T10); test: Gel band mobility shift assay, 24-mer hairpin target; format: binding; details: native conditions, 10 mM MgCl2, 80 mM Tris-borate, pH 8.2, 10° C.
Method: Triplex structures were further evaluated using gel band mobility shift assays.
Gel band mobility shift assay conditions were as follows: 20% acrylamide, 5% bisacrylamide in 10 mM MgCl2, 80 mM Tris-borate buffer, pH 8.2, 10° C. Gels were typically run under native (non-denaturing) conditions. In the figure the lanes are as follows: 1--10-mer phosphodiester Oligonucleotide 1; 2--10-mer phosphoramidate Oligonucleotide 3; 3--24-mer hairpin target d(A10 C4 T10) (FIG. 3, experiment 7).
The gel was stained with STAINS-ALL™ (Kodak, Rochester N.Y.) and imaged on a Molecular Dynamics (Sunnyvale, Calif.) densitometer.

[6] = versus Oligodeoxyribonucleotide 4

For “16mer phosphorothioate oligonucleotide (SEQ ID NO:27): 16mer phosphorothioate complementary to the B3A2 BCR/ABL fusion junction; 2 base pair mismatch to B2A2 (antisense GAGTTCAAAAGCCCTT; all phosphorothioate, sugars by position and methylation of C not given here)”, the “tolerance by BV173 cells” value (BV173 cells; all concentrations (FIG. 17)) was “tolerated by the cells”.

With “Oligonucleotide 6: fully modified N3'→P5' phosphoramidate 11-mer complementary to the BCR-ABL junction B2A2 (antisense CTTCTTCCTTA; all [np], sugars by position and methylation of C not given here)” the “effect on proliferation of K562 cells / cytotoxicity” value (K562 cells) was “essentially no effect on the proliferation”, the Tm of triplex ([1]; close to physiological conditions (buffer A)) was 32 °C and the Tm of triplex ([1]; magnesium-containing buffer (buffer B)) was 42.2 °C. The “Tm of duplex with complementary DNA strand” value (complementary DNA strand; buffer A) was 49.2 °C, the “Tm increase relative to parent phosphodiester Oligodeoxyribonucleotide 4, DNA strand” value (complementary DNA strand; [6]) was 11.7 °C and the “triplex formation in gel band mobility shift assay” value [2] was “stable triplex formation; also recorded: confirmed by gel band mobility shift assay”. For the same substance, the “ΔTm with single mismatch RNA target versus fully complementary” value [3] was -12.2 °C, the “Tm of duplex with complementary RNA strand” value (complementary RNA strand; buffer A) was 72.4 °C and the “Tm increase relative to parent phosphodiester Oligodeoxyribonucleotide 4, RNA strand” value (complementary RNA strand; [6]) was 22.9 °C. For the same substance, the “duplex stability increase relative to homologous RNA oligomer 5, same RNA target” value (complementary RNA strand; versus RNA oligomer 5) was 18.0 °C, the “cytotoxicity to HL60 cells” value (HL60 cells) was “no apparent cytotoxicity; also recorded: negligible toxicity” and the “tolerance by HL60 cells” value (HL60 cells; all concentrations (FIG. 11)) was “well tolerated by the cells”. For the same substance, the “shape of inhibition curves at later time points after partial release of inhibition” value (BV173 cells) was “downward inflection at later time points”, the “inhibition of BV173 leukemia cell proliferation” value (BV173 cells; all concentrations / FIG. 10 down to 5/2.5/2.5 μg/ml on days 0, 1, 2) was “extremely effective at inhibiting the growth of the leukemia cells” and the “inhibition of BV173 leukemia cell proliferation” value (BV173 cells; lowest concentrations 0.3125/0.15625/0.15625 μg/mL (FIG. 12)) was “extremely effective at inhibiting leukemia cell proliferation”.

For d(A10 C4 T10) [hairpin duplex], the “Tm of the hairpin duplex” value ([4]; buffer A) was 55.7 °C and the “Tm of the hairpin duplex” value ([4]; buffer B (10 mM MgCl2)) was 61.5 °C.

With “phosphorothioate 16-mer: oligonucleotide 16-mer having fully modified phosphorothioate intersubunit linkages, containing the SEQ ID NO:6 sequence (antisense AAGGGCTTCTTCCTTA; all phosphorothioate, sugars by position and methylation of C not given here)” the cytotoxicity (control cell lines) was “absence of cytotoxicity”, the “shape of inhibition curves at later time points after partial release of inhibition” value (BV173 cells) was “steep upward inflection at later time points” and the “concentrations of release of inhibition relative to phosphoramidate oligonucleotide 6” value (BV173 cells; FIGS. 18 and 19) was “much lower concentrations”. The “inhibition of BV173 leukemia cell growth relative to phosphoramidate oligonucleotide 6” value (BV173 cells) was “not effective at inhibiting BV173 leukemia cell proliferation” and the “inhibition of BV173 leukemia cell growth relative to phosphoramidate oligonucleotide 6” value (BV173 cells; listed as 16-mer (SEQ ID NO:26)) was “not as effective as oligonucleotide 6”.

For “phosphodiester decathymidilic acid [Oligonucleotide 1, reference compound]”, the “triplex formation judged by melting curves” value ([1]; buffers A and B, 260 and 284 nm) was “no corresponding triplex was formed; also recorded: did not form triplexes” and the “triplex formation in gel band mobility shift assay” value [5] was “no corresponding triplex was formed; also recorded: fails to form a triplex”.
